Laboratory results: publication PMC6150381, “Design, Synthesis, and Biological Evaluation of N,N-Disubstituted-4-arylthiazole-2-methylamine Derivatives as Cholesteryl Ester Transfer Inhibitors” (Molecules : A Journal of Synthetic Chemistry and Natural …, 2017)
Read-outs that look alike come from different tables or passages of the source. Each block holds one compound with its values, some of them ahead of it.

Experiments:
[1] = set-up: method as in PMID 26047975; conditions: phase II clinical trials; ref [18]; cited from earlier work
recombinant CETP [2] = biological target: T1, recombinant CETP (Homo sapiens, UniProt P11597); set-up: method as in previous work; conditions: in Figure 2; ref previous work; cited from earlier work
T1 construct: purchased Roar, New York, NY, USA RB-RPAK
T1 sequence (P11597 18-493): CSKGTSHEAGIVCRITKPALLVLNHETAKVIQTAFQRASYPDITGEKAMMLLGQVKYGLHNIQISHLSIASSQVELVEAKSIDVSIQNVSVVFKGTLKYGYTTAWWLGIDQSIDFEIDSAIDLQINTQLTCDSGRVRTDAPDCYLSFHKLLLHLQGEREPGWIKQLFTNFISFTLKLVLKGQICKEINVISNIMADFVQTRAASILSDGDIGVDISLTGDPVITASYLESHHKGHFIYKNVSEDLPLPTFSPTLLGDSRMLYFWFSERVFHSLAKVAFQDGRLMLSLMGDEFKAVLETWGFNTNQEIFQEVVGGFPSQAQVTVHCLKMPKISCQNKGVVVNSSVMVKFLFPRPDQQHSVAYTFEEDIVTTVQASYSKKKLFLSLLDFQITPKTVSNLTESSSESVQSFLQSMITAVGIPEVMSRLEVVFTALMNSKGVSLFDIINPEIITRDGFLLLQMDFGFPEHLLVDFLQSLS

recombinant CETP [3] = biological target: T1, recombinant CETP; assay: In vitro CETP inhibitory assay (BODIPY-CE fluorescence assay, CETP RP Activity Assay Kit); format: biochemical; conditions: CETP inhibition, eight-point titration, each concentration tested three times
Procedure: The IC50 was determined from a curve fit of the data with each concentration tested three times.

[4] = In vitro metabolic stability study, human liver microsomes; format: in vitro ADME; conditions: human liver microsome, no co-factor (no NADPH regenerating system)
[5] = In vitro metabolic stability study, rat liver microsomes; format: in vitro ADME; conditions: for Remaining (NCF = 60 min) / Remaining (T = 60 min): rat liver microsome; for Remaining (NCF = 60 min): no co-factor (no NADPH regenerating system); for Remaining (T = 60 min): with NADPH regenerating system; for microsomal CLint at 10 µM: rat, liver microsomes, read-out: CL (clearance rate)
Procedure: (§1) Ten microliters (10 μL, 100 μM/L) of compounds and 80 μL of liver microsomes were mixed and incubated at 37 °C for 10 min, and then 10 μL of NADPH regenerating system was added. Samples were obtained at 0 min, 5 min, 10 min, 20 min, 30 min and 60 min. respectively, and 300 μL stop solution (cold in 4 °C, including 100 ng/mL tolbutamide and 100 ng/mL labetalol) was added to terminate the reaction. After oscillating for 10 min, the plates were centrifuged (4000 rpm) at room temperature for 20 min, and the supernatants were used for analysis.

[6] = In vitro metabolic stability study, human liver microsomes; format: in vitro ADME; conditions: for Remaining (T = 60 min): human liver microsome, with NADPH regenerating system; for microsomal CLint at 10 µM: human, liver microsomes, read-out: CL (clearance rate)
Procedure: as §1

[7] = ref [12],[13],[14], cited from earlier work

IC50 (recombinant CETP [3]): 3.54 ± 0.03 µM | melting point: 103.5 to 105.4 °C
Compound: COC(=O)CNc1ccc(-c2csc(CN(Cc3ccc(F)cc3)c3ccc(OC)c(OC)c3)n2)cc1 [Compound 47, Methyl(4-(2-(((3,4-dimethoxyphenyl)(4-fluorobenzyl)amino)methyl)thiazol-4-yl)phenyl)glycinate]

IC50 (recombinant CETP [3]): > 50 µM | melting point: 139 to 140.4 °C
Compound: COc1ccc(N(Cc2ccc(F)cc2)Cc2nc(-c3ccc(N4CCOCC4)cc3)cs2)cc1OC [Compound 49, N-(4-Fluorobenzyl)-3,4-dimethoxy-N-((4-(4-morpholinophenyl)thiazol-2-yl)methyl)aniline]

Second part, the compound before the results:

Compound: CCOC(=O)N1c2ccc(C(F)(F)F)cc2[C@@H](N(Cc2cc(C(F)(F)F)cc(C(F)(F)F)c2)c2ncc(OCCCC(=O)O)cn2)C[C@H]1CC [AMG-899]
increased HDL-C levels [1]: 179.1% | reduced LDL-C levels [1]: 45.3%

Compound: O=C(CCN(Cc1ccc(F)cc1)c1cccc(Oc2ccccc2)c1)Nc1ccccc1 [Compound 5]
IC50 (recombinant CETP [2]): 24.8 µM

Compound: COc1ccc(N(Cc2ccc(F)cc2)Cc2nc(-c3ccc([N+](=O)[O-])cc3)cs2)cc1OC [Compound 30, N-(4-Fluorobenzyl)-3,4-dimethoxy-N-((4-(4-nitrophenyl)thiazol-2-yl)methyl)aniline]
IC50 (recombinant CETP [3]): 0.79 ± 0.02 µM | melting point: 111 to 112.8 °C | Remaining (NCF = 60 min) [4]: 68.0% | Remaining (NCF = 60 min) [5]: 90.5% | Remaining (T = 60 min) [5]: 3.2% | microsomal CLint at 10 µM [5]: 122 µL/min/mg | metabolic stability (in words) ([6]; human and rat liver microsomes): weak human/rat liver microsome stability | Remaining (T = 60 min) [6]: 22.9% | microsomal CLint at 10 µM [6]: 48.1 µL/min/mg

Compound: COc1ccc(N(Cc2ccc(F)cc2)Cc2nc(-c3ccc(C(F)(F)F)cc3)cs2)cc1OC [Compound 32, N-(4-Fluorobenzyl)-3,4-dimethoxy-N-((4-(4-(trifluoromethyl)phenyl)thiazol-2-yl)methyl)aniline]
IC50 (recombinant CETP [3]): 0.97 ± 0.01 µM | melting point: 88.7 to 89.5 °C | Remaining (NCF = 60 min) [4]: 69.1% | Remaining (NCF = 60 min) [5]: 101.3% | Remaining (T = 60 min) [5]: 10.1% | microsomal CLint at 10 µM [5]: 79.3 µL/min/mg | Remaining (T = 60 min) [6]: 39.3% | microsomal CLint at 10 µM [6]: 29.8 µL/min/mg

Compound: CCOC(=O)N1c2ccc(C(F)(F)F)cc2[C@@H](N(Cc2cc(C(F)(F)F)cc(C(F)(F)F)c2)C(=O)OC)C[C@H]1CC [torcetrapib]
increase of HDL-C ([7]; human studies, dose-dependent): greater than 100% | LDL-C decreasing ([7]; human studies): up to 42% | increase in deaths ([7]; torcetrapib/atorvastatin group compared to the atorvastatin group): 58%
